# Earlier results in patent publication US20110256530A1, “PRODUCTS AND METHODS FOR TISSUE PRESERVATION” (GenVault Corporation, priority 2010, published 2011).
# Tests used:
# [1] = charge state, pH 7, literature references (30)-(33)
# nucleases = conditions: Table I, description in words
# [2] = 25° C.
Useful Chemical Properties [1],Molecule,Activity (nucleases),also measured
Cation at pH 7 (32),"Cn1cncc1C[C@H](NC(=O)CCN)C(=O)O [Anserine, Anserine (Alanine-methyl-histidine)]",–,–
Neutral (31),OC[C@@H](O)[C@@H](O)[C@H](O)[C@H](O)CO [Mannitol],–,–
–,Aurinetricarboxylic Acid [Aurinetricarboxylic Acid (ATA)n],"derivative, broad spectrum",–
–,"C=O [formalin, methylene glycol]",–,permeation through tissue block [2]: about 1 mm of tissue block per hour
–,Uridine-Vanadate [Uridine-Vanadate U-V04],RNase specific Inhibitor,–
–,O=C(O)CN(CCN(CC(=O)O)CC(=O)O)CC(=O)O [EDTA],"Divalent Chelator, Inhibitor",–
Neutral zwitterions,N[C@@H](Cc1c[nH]cn1)C(=O)O [Histidine],–,–
–,"RI: Large (~450 residues, ~49 kDa), acidic leucine-rich repeat protein that binds ribonucleases (protein, UniProt P13489 2-461, looked up) Ribonuclease inhibitor: SLDIQSLDIQCEELSDARWAELLPLLQQCQVVRLDDCGLTEARCKDISSALRVNPALAELNLRSNELGDVGVHCVLQGLQTPSCKIQKLSLQNCCLTGAGCGVLSSTLRTLPTLQELHLSDNLLGDAGLQLLCEGLLDPQCRLEKLQLEYCSLSAASCEPLASVLRAKPDFKELTVSNNDINEAGVRVLCQGLKDSPCQLEALKLESCGVTSDNCRDLCGIVASKASLRELALGSNKLGDVGMAELCPGLLHPSSRLRTLWIWECGITAKGCGDLCRVLRAKESLKELSLAGNELGDEGARLLCETLLEPGCQLESLWVKSCSFTAACCSHFSSVLAQNRFLLELQISNNRLEDAGVRELCQGLGQPGSVLRVLWLADCDVSDSSCSSLAATLLANHSLRELDLSNNCLGDAGILQLVESVRQPGCLLEQLVLYDIYWSEEMEDRLQALEKDKPSLRVIS",–,complexes with certain ribonucleases (ribonucleases): extremely tight complexes
